We go through 1 molecule from paper PMC10455244, “Alpha-Mangostin: A Potent Inhibitor of TRPV3 and Pro-Inflammatory Cytokine Secretion in Keratinocytes” (International Journal of Molecular Sciences, 2023).

For this test, the target named is T1, TRPV3 (Homo sapiens, UniProt Q8NET8).
T1 sequence (Q8NET8 1-790): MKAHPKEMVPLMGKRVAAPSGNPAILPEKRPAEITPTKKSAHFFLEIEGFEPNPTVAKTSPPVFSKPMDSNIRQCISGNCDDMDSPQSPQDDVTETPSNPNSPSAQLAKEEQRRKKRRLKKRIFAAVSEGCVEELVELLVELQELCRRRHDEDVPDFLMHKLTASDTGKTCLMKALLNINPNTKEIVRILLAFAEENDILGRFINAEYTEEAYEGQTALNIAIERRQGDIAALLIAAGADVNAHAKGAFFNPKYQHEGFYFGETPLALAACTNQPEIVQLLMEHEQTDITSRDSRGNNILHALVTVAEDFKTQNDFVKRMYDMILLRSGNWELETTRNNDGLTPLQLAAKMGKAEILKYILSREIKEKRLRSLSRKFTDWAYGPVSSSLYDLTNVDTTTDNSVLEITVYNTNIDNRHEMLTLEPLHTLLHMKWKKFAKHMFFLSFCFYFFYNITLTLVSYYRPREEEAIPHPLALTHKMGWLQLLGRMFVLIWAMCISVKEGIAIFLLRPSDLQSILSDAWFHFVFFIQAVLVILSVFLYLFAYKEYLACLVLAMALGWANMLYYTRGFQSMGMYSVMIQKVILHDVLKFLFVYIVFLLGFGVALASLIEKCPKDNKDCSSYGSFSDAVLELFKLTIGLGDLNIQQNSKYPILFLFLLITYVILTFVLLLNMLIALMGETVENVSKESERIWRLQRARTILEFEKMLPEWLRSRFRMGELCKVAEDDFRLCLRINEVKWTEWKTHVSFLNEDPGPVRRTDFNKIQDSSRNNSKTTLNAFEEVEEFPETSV
Put plainly: Whole-cell patch-clamp, 2-APB-evoked TRPV3 current in hTRPV3-overexpressing HEK 293T cells. The format is cell-based. Also noted: expressed in transfected cells. An excerpt: First, we used a conventional whole-cell patch-clamp to record the TRPV3 current in HEK 293T cells overexpressing hTRPV3. Then, different concentrations of alpha-mangostin were perfused into the cells to determine the effects of alpha-mangostin on the TRPV3 current. Alpha-mangostin inhibited 2-APB-evoked TRPV3 current, as shown in a representative cell in Figure 1A.
Figure 1 Alpha-mangostin (α-MG) inhibited the TRPV3 current. […] (A) Alpha-mangostin inhibited 2-APB-evoked current in a representative TRPV3 overexpressing HEK 293T cell. The channel was activated using 100 µM 2-APB and subsequently perfused with solutions containing different concentrations of alpha-mangostin with 100 µM 2-APB. A solution containing 10 µM ruthenium red (RR, a TRP channel inhibitor) and 100 µM 2-APB was perfused at the end. […] Currents were normalized to the maximum response to 2-APB at −100 mV. (C) Alpha-mangostin inhibited carvacrol-evoked current in a representative TRPV3-overexpressing HEK 293T cell. TRPV3 was activated using 1000 µM carvacrol and subsequently perfused with solutions containing different concentrations of alpha-mangostin with 1000 µM carvacrol. A solution containing 10 µM RR and 1000 µM carvacrol was perfused at the end. (D) Summary of normalized currents evoked by carvacrol with or without alpha-mangostin at −100 mV. Currents were normalized to the maximum response carvacrol at −100 mV. (E) Alpha-mangostin inhibited 2-APB-evoked current in NHEK. The channel was activated using 100 µM 2-APB and subsequently perfused with solutions containing different concentrations of alpha-mangostin with 100 µM 2-APB. A solution containing 10 µM 74a (a TRPV3 inhibitor) and 100 µM 2-APB was perfused at the end. […] The right panel summarizes normalized currents evoked by 2-APB with or without alpha-mangostin at −100 mV. Currents were normalized to the maximum response to 2-APB at −100 mV. Data are presented as means ± SEM. ** p < 0.01, *** p < 0.001, **** p < 0.0001.
HEK 293T cells were purchased from the American Type Culture Collection (Cat. No. CRL-3216, ATCC, Manassas, VA, USA). TRPV3-overexpressing HEK 293T cells were supplied by Prof. Wan Lee (Dongguk University College of Medicine, Gyeongju, South Korea). HEK 293T cells expressing TRPV3 mutants (G573S, G573C), TRPV4, TRPA1 were made by transient transfection. These cells were cultured in Dulbecco’s modified Eagle’s medium (DMEM, Welgene, Daegu, Korea) containing 10% fetal bovine serum (FBS; Welgene) and 1% penicillin/streptomycin (P/S; Life Technologies, Carlsbad, CA, USA). […]
[…] Sampling at 10 kHz and low-pass filtering at 5 kHz (w-c) were applied for all recorded currents. Recorded data were analyzed using Clampfit ver. […]

On to `COc1c(O)cc2oc3cc(O)c(CC=C(C)C)c(O)c3c(=O)c2c1CC=C(C)C` [Alpha-mangostin], for which the “Inhibition of 2-APB-evoked TRPV3 currents” value (10 µM, 100 µM 2-APB, −100 mV, similar level to 10 µM ruthenium red) is given as “almost completely inhibited”. For the same molecule, the inhibition at 0.3 µM (HEK-293T, 0.3 µM, −100 mV, read-out: Inhibition percentage of TRPV3 current) turned out to be 76.6%. Also, for the setting “hTRPV3-overexpressing HEK 293T, 100 µM 2-APB, at −100 mV, read-out: IC50, inhibition of 2-APB-induced TRPV3 current”, the IC50 came out at 77 ± 13 nM. Besides, the “Reversibility of inhibitory effect on TRPV3 current” value (wash out, 100 µM 2-APB, −60 mV holding potential) was “partly reversible”.
